Common to all, as to experiment: Optical Titration Assay
What all share (conditions): pH 7

Test [1] deals with Bifunctional cytochrome P450/NADPH--P450 reductase [A82F,F87V] (Bacillus megaterium, UniProt P14779, A82F/F87V). How it is done:
(§1) Dissociation constants (Kd values) for binding of the substrates N-palmitoylglycine (NPG) and omeprazole (OMP) to WT and mutant BM3 heme domains were determined by UVvisible absorption titrations using ~1-4 μM protein in 100mMKPi, pH 7.0, at 25 °C (assay buffer) in 1-cm path length quartz cuvettes and as in our previous studies. Spectra were recorded for substrate-free enzymes and following addition of ligands during substrate titrations (typically 800 to 250 nm).

For test [2], the target named is Bifunctional cytochrome P450/NADPH--P450 reductase [A82F] (Bacillus megaterium, UniProt P14779, A82F). How it is done: as §1
Bifunctional cytochrome P450/NADPH--P450 reductase [A82F], sequence (P14779 whole entry A83F): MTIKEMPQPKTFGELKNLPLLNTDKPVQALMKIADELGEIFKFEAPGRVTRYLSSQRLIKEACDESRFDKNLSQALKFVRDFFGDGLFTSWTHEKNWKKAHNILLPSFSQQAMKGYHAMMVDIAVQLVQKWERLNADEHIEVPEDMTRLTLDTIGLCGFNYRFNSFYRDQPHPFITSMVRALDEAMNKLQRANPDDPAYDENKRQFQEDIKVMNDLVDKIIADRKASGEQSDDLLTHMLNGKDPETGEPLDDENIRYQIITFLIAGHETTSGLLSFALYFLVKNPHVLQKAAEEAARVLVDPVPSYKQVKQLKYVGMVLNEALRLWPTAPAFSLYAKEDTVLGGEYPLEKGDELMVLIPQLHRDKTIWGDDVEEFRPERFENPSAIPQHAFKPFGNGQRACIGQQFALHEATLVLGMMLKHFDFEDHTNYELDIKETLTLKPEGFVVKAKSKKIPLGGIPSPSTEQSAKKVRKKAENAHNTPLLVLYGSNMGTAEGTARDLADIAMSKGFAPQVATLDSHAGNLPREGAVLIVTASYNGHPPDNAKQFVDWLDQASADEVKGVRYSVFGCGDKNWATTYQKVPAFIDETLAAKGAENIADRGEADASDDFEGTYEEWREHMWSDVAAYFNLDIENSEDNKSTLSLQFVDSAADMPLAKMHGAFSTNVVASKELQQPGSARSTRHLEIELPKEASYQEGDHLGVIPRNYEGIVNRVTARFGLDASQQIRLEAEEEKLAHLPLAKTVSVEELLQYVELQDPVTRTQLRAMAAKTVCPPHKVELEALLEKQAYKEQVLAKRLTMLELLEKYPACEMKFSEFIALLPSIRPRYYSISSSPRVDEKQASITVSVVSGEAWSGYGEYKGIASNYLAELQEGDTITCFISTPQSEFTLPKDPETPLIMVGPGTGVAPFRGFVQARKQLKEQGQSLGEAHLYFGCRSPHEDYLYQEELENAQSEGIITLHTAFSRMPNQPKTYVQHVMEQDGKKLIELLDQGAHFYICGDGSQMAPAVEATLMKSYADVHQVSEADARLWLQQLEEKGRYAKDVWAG
In test [3] the target is Bifunctional cytochrome P450/NADPH--P450 reductase [F87V] (Bacillus megaterium, UniProt P14779, F87V). How it is done:
as §1

The target in test [4] is T1, Bifunctional cytochrome P450/NADPH--P450 reductase (Bacillus megaterium, UniProt P14779).
T1 sequence (P14779 whole entry): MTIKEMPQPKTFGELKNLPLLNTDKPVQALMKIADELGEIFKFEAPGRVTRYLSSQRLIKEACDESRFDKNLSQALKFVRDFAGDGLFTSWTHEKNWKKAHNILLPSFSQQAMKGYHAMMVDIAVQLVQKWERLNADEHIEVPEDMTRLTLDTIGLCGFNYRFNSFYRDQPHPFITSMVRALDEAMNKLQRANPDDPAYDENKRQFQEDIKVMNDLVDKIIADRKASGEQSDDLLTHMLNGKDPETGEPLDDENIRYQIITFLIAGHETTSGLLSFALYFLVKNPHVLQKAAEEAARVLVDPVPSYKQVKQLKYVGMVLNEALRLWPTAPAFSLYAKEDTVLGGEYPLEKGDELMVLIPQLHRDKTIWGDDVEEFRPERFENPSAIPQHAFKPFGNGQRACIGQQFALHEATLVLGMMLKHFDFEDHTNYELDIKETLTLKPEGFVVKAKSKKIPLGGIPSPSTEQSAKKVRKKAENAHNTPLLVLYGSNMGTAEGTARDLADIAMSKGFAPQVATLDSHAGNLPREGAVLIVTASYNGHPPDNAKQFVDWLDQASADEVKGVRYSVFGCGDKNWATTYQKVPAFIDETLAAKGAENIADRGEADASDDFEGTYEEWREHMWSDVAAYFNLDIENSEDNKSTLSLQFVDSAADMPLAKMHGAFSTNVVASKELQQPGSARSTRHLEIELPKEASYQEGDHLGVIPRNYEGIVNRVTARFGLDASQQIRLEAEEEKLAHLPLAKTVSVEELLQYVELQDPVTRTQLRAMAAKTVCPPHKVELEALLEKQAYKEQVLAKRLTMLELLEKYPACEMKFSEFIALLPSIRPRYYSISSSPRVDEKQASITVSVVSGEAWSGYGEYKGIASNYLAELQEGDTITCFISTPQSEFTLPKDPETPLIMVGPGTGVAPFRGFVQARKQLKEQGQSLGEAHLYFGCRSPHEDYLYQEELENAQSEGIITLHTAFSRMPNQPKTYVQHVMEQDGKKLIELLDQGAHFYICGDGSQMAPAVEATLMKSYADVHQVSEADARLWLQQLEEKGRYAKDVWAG
The method, then:
as §1

The term Kd denotes the free concentration of one partner at which half of the binding sites on the other are occupied at equilibrium, for simple one-to-one binding.

Bifunctional cytochrome P450/NADPH--P450 reductase [A82F,F87V], sequence (P14779 whole entry A83F/F88V, the tested form may be a part): as the sequence (P14779 whole entry A83F) above, with F88V counted along it
Bifunctional cytochrome P450/NADPH--P450 reductase [F87V], sequence (P14779 whole entry F88V): as the sequence (P14779 whole entry A83F) above, with F83A, F88V counted along it

As for `COc1ccc2[nH]c([S+]([O-])Cc3ncc(C)c(OC)c3C)nc2c1` (configuration not stated) [H-168/68], the dissociation constant Kd in test [1] was 0.212 µM; in test [2], 1.67 µM; in test [3] it was 49 µM.
Turning to `CCCCCCCCCCCCCCCC(=O)NCC(=O)O` [N-palmitoylglycine (NPG)], the Kd was determined as 0.082 µM in test [4], 0.004 µM in test [1], 0.297 µM in test [2] and 0.204 µM in test [3].
